The target of experiment [1] is T1, human MDM2 protein (amino acids 2-188) (Homo sapiens (Human), UniProt Q00987). The experiment is described as follows: TR-FRET p53-MDM2 Assay 1. The format is binding. Conditions: 1.25 nM MDM2-biotinylated, 10 nM Cy5-p53 peptide. As for the experimental part:
(§1) Time Resolved Fluorescence Energy Transfer (TR-FRET) Assay
(§2) The inhibition of p53-MDM2 and p53-MDM4 interactions is measured by time resolved fluorescence energy transfer (TR-FRET). Fluorescence energy transfer (or Foerster resonance energy transfer) describes an energy transfer between donor and acceptor fluorescent molecules. For this assay, human MDM2 protein (amino acids 2-188) and human MDM4 protein (amino acids 2-185), tagged with a C-terminal biotin moiety, are used in combination with a Europium labeled streptavidin (Perkin Elmer, Inc., Waltham, Mass., USA) serving as the donor fluorophore. The p53 derived, Cy5 labeled peptide Cy5-TFSDLWKLL (p53 aa18-26) is the energy acceptor. Upon excitation of the donor molecule at 340 nm, binding interaction between MDM2 or MDM4 and the p53 peptide induces energy transfer and enhanced response at the acceptor emission wavelength at 665 nm.
(§3) Disruption of the formation of the p53-MDM2 or p53-MDM4 complex due to an inhibitor molecule binding to the p53 binding site of MDM2 or MDM4 results in increased donor emission at 620 nm. The ratiometric FRET assay readout is calculated from the raw data of the two distinct fluorescence signals measured in time resolved mode (fluorescence 665 nm/fluorescence 620 nm×1000).
(§4) The test is performed in white 384-well plates (Greiner Bio-One, reference 781207) in a total volume of 60 μL by adding 1 μL of compounds tested at different concentrations diluted in 100% DMSO (1.7% final DMSO concentration) in reaction buffer (PBS, 125 mM NaCl, 0.001% Novexin (consists of carbohydrate polymers), designed to increase the solubility and stability of proteins; Expedeon Ltd., Cambridgeshire, United Kingdom), 0.01% Gelatin, 0.01% 0.2%, Pluronic F-127 (block copolymer from ethylenoxide and propyleneoxide), 1 mM DTT). After addition of 1.25 nM MDM2-biotinylated or 2.5 nM MDM4-biotinylated (internal preparations, both MDM2 and MDM4 are biotinylated at the C-terminal of the peptide construct), and 0.625 nM Europium labeled streptavidin (Perkin Elmer), the solution is pre-incubated for 15 minutes at room temperature, then 10 nM Cy5-p53 peptide (internal preparation, the Cy5 dye is directly bound to the N-terminal part of p53 peptide construct) is added before an incubation at room temperature for 15 minutes prior to reading the plate. For measurement of samples, a Victor II microplate reader (Perkin Elmer) is used with the following settings: Excitation 340 nm, Emission Donor 620 nm and Emission Acceptor 665 nm. IC50 values are calculated by curve fitting using XLfit. If not specified, reagents are purchased from Sigma-Aldrich Chemie GmBH, Buchs, Switzerland.
(§5) This assay was used to evaluate compounds displaying inhibition of p53-MDM2 interaction and p53-MDM4 interaction at IC50s of 0.005 to 50 μM (p53-MDM2 Assay 1 and p53-MDM4 Assay 1, respectively). For selected compounds displaying IC50s between […] on MDM2, a slightly modified assay is used with the following adaptations: 0.1 nM MDM2, 0.1 nM Europium labeled streptavidin and Tecan genios Pro is used as a microplate reader for the fluorescence measurements (p53-MDM2 Assay 2).
A general note: In TR-FRET formats the signal depends on donor and acceptor labels being close together.

Experiment [2] has as its target T1, human MDM2 protein (amino acids 2-188). The experiment is described as follows: TR-FRET p53-MDM2 Assay 2 (modified: 0.1 nM MDM2). The format is binding. To be noted: 0.1 nM MDM2, 0.1 nM Europium labeled streptavidin, Tecan genios Pro reader. How it is done: as §1, §2, §3, §4, §5

T1 sequence (Q00987 2-188): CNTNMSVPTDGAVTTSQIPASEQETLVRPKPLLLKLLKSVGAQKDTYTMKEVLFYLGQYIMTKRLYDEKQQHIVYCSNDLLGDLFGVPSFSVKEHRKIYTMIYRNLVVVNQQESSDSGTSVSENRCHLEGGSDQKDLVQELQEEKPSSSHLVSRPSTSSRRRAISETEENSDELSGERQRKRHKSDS

What is called IC50 is the concentration at which inhibition is half-maximal. Take `CC(C)n1c(Br)nc2c1C(c1ccc(Cl)cc1)N(c1cccc(Cl)c1F)C(=O)N2` (centres unmarked) [Example 5, 8-Bromo-1-(3-chloro-2-fluorophenyl)-6-(4-chlorophenyl)-7-isopropyl-6,7-dihydro-1H-purin-2(3H)-one]: the IC50 in experiment [1] was 0.12 µM. On to `COc1ccc(F)cc1-c1nc2c(n1C(C)C)C(c1ccc(Cl)cc1C)N(c1cc(Cl)ccc1C)C(=O)N2` (centres unmarked) [Example 7, 1-(5-Chloro-2-methyl-phenyl)-6-(4-chloro-2-methyl-phenyl)-8-(5-fluoro-2-methoxy-phenyl)-7-isopropyl-1,3,6,7-tetrahydro-purin-2-one], for which the IC50 in experiment [2] was found to be 0.531 nM. With `COc1ccc(C(=O)NCCO)cc1-c1nc2c(n1C(C)C)C(c1ccc(Cl)cc1C)N(c1cc(Cl)ccc1C)C(=O)N2` (centres unmarked) [Example 8, 3-[1-(5-Chloro-2-methyl-phenyl)-6-(4-chloro-2-methyl-phenyl)-7-isopropyl-2-oxo-2,3,6,7-tetrahydro-1H-purin-8-yl]-N-(2-hydroxy-ethyl)-4-methoxy-benzamide], in experiment [2], the IC50 turned out to be 0.447 nM. As for `CNC(=O)c1ccc(OC)c(-c2nc3c(n2C(C)C)C(c2ccc(Cl)cc2C)N(c2cc(Cl)ccc2C)C(=O)N3)c1` (centres unmarked) [Example 9, 3-[1-(5-Chloro-2-methyl-phenyl)-6-(4-chloro-2-methyl-phenyl)-7-isopropyl-2-oxo-2,3,6,7-tetrahydro-1H-purin-8-yl]-4-methoxy-N-methyl-benzamide], the half-maximal inhibitory concentration (IC50) in experiment [2] is 0.21 nM. `COc1ccc(C(=O)N(C)C)cc1-c1nc2c(n1C(C)C)C(c1ccc(Cl)cc1C)N(c1cc(Cl)ccc1C)C(=O)N2` (centres unmarked) [Example 10, 3-[1-(5-Chloro-2-methyl-phenyl)-6-(4-chloro-2-methyl-phenyl)-7-isopropyl-2-oxo-2,3,6,7-tetrahydro-1H-purin-8-yl]-4-methoxy-N,N-dimethyl-benzamide]: the half-maximal inhibitory concentration (IC50) in experiment [2] worked out at 0.432 nM. `COc1ccc(CO)cc1-c1nc2c(n1C(C)C)C(c1ccc(Cl)cc1C)N(c1cc(Cl)ccc1C)C(=O)N2` (centres unmarked) [Example 11, 1-(5-Chloro-2-methyl-phenyl)-6-(4-chloro-2-methyl-phenyl)-8-(5-hydroxymethyl-2-methoxy-phenyl)-7-isopropyl-1,3,6,7-tetrahydro-purin-2-one]: the IC50 in experiment [2] stood at 0.371 nM.

Take `COc1ccc(C#N)cc1-c1nc2c(n1C(C)C)C(c1ccc(Cl)cc1C)N(c1cc(Cl)ccc1C)C(=O)N2` (centres unmarked) [Example 12, 3-[1-(5-Chloro-2-methyl-phenyl)-6-(4-chloro-2-methyl-phenyl)-7-isopropyl-2-oxo-2,3,6,7-tetrahydro-1H-purin-8-yl]-4-methoxy-benzonitrile]: the IC50 in experiment [2] was found to be 0.414 nM. For `COc1ccccc1-c1nc2c(n1C(C)C)C(c1ccc(C#N)cc1)N(c1cc(Cl)ccc1C)C(=O)N2` (centres unmarked) [Example 13, 4-[1-(5-Chloro-2-methyl-phenyl)-7-isopropyl-8-(2-methoxy-phenyl)-2-oxo-2,3,6,7-tetrahydro-1H-purin-6-yl]-benzonitrile], the IC50 in experiment [2] is 0.724 nM. `COc1ccccc1-c1nc2c(n1C(C)C)C(c1ccc(C#N)cc1)N(c1cccc(Cl)c1F)C(=O)N2` (centres unmarked) [Example 14, 4-(1-(3-Chloro-2-fluorophenyl)-7-isopropyl-8-(2-methoxyphenyl)-2-oxo-2,3,6,7-tetrahydro-1H-purin-6-yl)benzonitrile]: the half-maximal inhibitory concentration (IC50) in experiment [2] came out at 0.473 nM. On to `COc1ncc(-c2nc3c(n2C(C)C)C(c2ccc(Cl)c(F)c2)N(c2ccc(F)c(Cl)c2)C(=O)N3)c(OC)n1` (centres unmarked) [Example 15, 6-(4-Chloro-3-fluorophenyl)-1-(3-chloro-4-fluorophenyl)-8-(2,4-dimethoxypyrimidin-5-yl)-7-isopropyl-6,7-dihydro-1H-purin-2(3H)-one], for which the IC50 in experiment [2] is 0.451 nM. As for `COc1ncc(-c2nc3c(n2C(C)C)C(c2ccc(Cl)cc2C)N(c2cc(Cl)c(=O)n(C)c2)C(=O)N3)c(OC)n1` (centres unmarked) [Example 16, 1-(5-Chloro-1-methyl-6-oxo-1,6-dihydro-pyridin-3-yl)-6-(4-chloro-2-methyl-phenyl)-8-(2,4-dimethoxy-pyrimidin-5-yl)-7-isopropyl-1,3,6,7-tetrahydro-purin-2-one], in experiment [2], the concentration for half-maximal inhibition (IC50) is 3.11 nM.

As for `COc1ncc(-c2nc3c(n2C(C)C)C(c2ccc(Cl)c(F)c2)N(c2cc(Cl)cn(C)c2=O)C(=O)N3)c(OC)n1` (centres unmarked) [Example 17, 1-(5-Chloro-1-methyl-2-oxo-1,2-dihydropyridin-3-yl)-6-(4-chloro-3-fluorophenyl)-8-(2,4-dimethoxypyrimidin-5-yl)-7-isopropyl-6,7-dihydro-1H-purin-2(3H)-one], in experiment [2], the IC50 is 1.67 nM. With `COc1ncc(-c2nc3c(n2C(C)C)C(c2ccc(Cl)cc2)N(c2cc(Cl)cn(C)c2=O)C(=O)N3)c(OC)n1` (centres unmarked) [Example 18, 1-(5-Chloro-1-methyl-2-oxo-1,2-dihydropyridin-3-yl)-6-(4-chlorophenyl)-8-(2,4-dimethoxypyrimidin-5-yl)-7-isopropyl-6,7-dihydro-1H-purin-2(3H)-one], the IC50 in experiment [2] is 2.91 nM.

For `COc1ncc(-c2nc3c(n2C(C)C)C(c2ccc(Cl)c(F)c2)N(c2cc(Cl)c(=O)n(C)c2)C(=O)N3)c(OC)n1` (centres unmarked) [Example 19, 1-(5-Chloro-1-methyl-6-oxo-1,6-dihydropyridin-3-yl)-6-(4-chloro-3-fluorophenyl)-8-(2,4-dimethoxypyrimidin-5-yl)-7-isopropyl-6,7-dihydro-1H-purin-2(3H)-one], the IC50 in experiment [2] came out at 0.93 nM. In the case of `COc1nc(N(C)C)ncc1-c1nc2c(n1C(C)C)C(c1ccc(Cl)c(F)c1)N(c1cc(Cl)c[nH]c1=O)C(=O)N2` (centres unmarked) [Example 20, 1-(5-Chloro-2-oxo-1,2-dihydropyridin-3-yl)-6-(4-chloro-3-fluorophenyl)-8-(2-(dimethylamino)-4-methoxypyrimidin-5-yl)-7-isopropyl-6,7-dihydro-1H-purin-2(3H)-one], the IC50 in experiment [2] was found to be 0.354 nM. Turning to `COc1nc(N)ncc1-c1nc2c(n1C(C)C)C(c1ccc(Cl)cc1)N(c1cc(Cl)cn(C)c1=O)C(=O)N2` (centres unmarked) [Example 21, 8-(2-Amino-4-methoxypyrimidin-5-yl)-1-(5-chloro-1-methyl-2-oxo-1,2-dihydropyridin-3-yl)-6-(4-chlorophenyl)-7-isopropyl-6,7-dihydro-1H-purin-2(3H)-one], the IC50 in experiment [2] stood at 4.3 nM. For `COc1nc(N(C)C)ncc1-c1nc2c(n1C(C)C)C(c1ccc(Cl)cc1)N(c1cc(Cl)cn(C)c1=O)C(=O)N2` (centres unmarked) [Example 22, 1-(5-Chloro-1-methyl-2-oxo-1,2-dihydropyridin-3-yl)-6-(4-chlorophenyl)-8-(2-(dimethylamino)-4-methoxypyrimidin-5-yl)-7-isopropyl-6,7-dihydro-1H-purin-2(3H)-one], the IC50 in experiment [2] was determined as 0.587 nM.

As for `COc1nc(N(C)C)ncc1-c1nc2c(n1C(C)C)C(c1ccc(Cl)c(F)c1)N(c1ccc(F)c(Cl)c1)C(=O)N2` (centres unmarked) [Example 23, 6-(4-Chloro-3-fluorophenyl)-1-(3-chloro-4-fluorophenyl)-8-(2-(dimethylamino)-4-methoxypyrimidin-5-yl)-7-isopropyl-6,7-dihydro-1H-purin-2(3H)-one], the IC50 in experiment [2] amounted to 0.385 nM.

Turning to `COc1nc(N(C)C)ncc1-c1nc2c(n1C(C)C)C(c1ccc(Cl)c(F)c1)N(c1cc(Cl)cn(C)c1=O)C(=O)N2` (centres unmarked) [Example 24, 1-(5-Chloro-1-methyl-2-oxo-1,2-dihydropyridin-3-yl)-6-(4-chloro-3-fluorophenyl)-8-(2-(dimethylamino)-4-methoxypyrimidin-5-yl)-7-isopropyl-6,7-dihydro-1H-purin-2(3H)-one], the IC50 in experiment [2] was determined as 0.748 nM.

Take `COc1ncc(-c2nc3c(n2C(C)C)C(c2ccc(Cl)c(F)c2)N(c2cc(Cl)c[nH]c2=O)C(=O)N3)c(OC)n1` (centres unmarked) [Example 25, 1-(5-Chloro-2-oxo-1,2-dihydropyridin-3-yl)-6-(4-chloro-3-fluorophenyl)-8-(2,4-dimethoxypyrimidin-5-yl)-7-isopropyl-6,7-dihydro-1H-purin-2(3H)-one]: the IC50 in experiment [2] came out at 0.356 nM.

Values taken from patent US9403827B2, “Substituted purinone compounds” (NOVARTIS AG, priority 2013, dated 2016).
